The record followed here is patent publication US9932354B2, “Imidazo-oxadiazole and imidazo-thiadiazole derivatives” (Ares Trading S.A., priority 2012, dated 2018).

Test [1] relates to Amyloid-β peptide release (AβTotal), HEK cells overexpressing APP (HEK-APP). Briefly: Amyloid-β peptide release (AβTotal) assay, AlphaLISA on supernatant of HEK-APP cells. It is filed as cell-based. Conditions: ratio Abtot vs Ab42, HEK-APP cells, 24 h. On the procedure:
(§1) Amyloid-β Peptide Release (Aβ42 & AβTotal) Assay to Determine IC50 Values.
(§2) Compounds are dissolved in and diluted in 100% DMSO and incubated with HEK-APP cells for 24 h at 37° C. in 5% CO2. The supernatant from HEK-APP cells are mixed with antibodies: for Aβ42 detection: AlphaLISA Amyloid-β 1-42 Kit (Perkin Elmer AL203L) Anti-Amyloid β1-42-specific antibody acceptor beads, biotinylated anti-Amyloid-“β1-42” antibody and streptavidin (SA) donor beads diluted in AlphaLISA buffer (to the instructions of the supplier). For Aβ total detection: Custom Anti-Amyloid-βtotal acceptor beads (6E10 acceptor beads), biotinylated anti-Amyloid “β1-42” antibody (Perkin Elmer AL203L) and streptavidin (SA) donor beads diluted in AlphaLISA buffer (to the instructions of the supplier). After addition of supernatant to the antibody mix, the assay is incubated for 4.5 h. Amyloid-β peptide release (Aβ42 & AβTotal) is measured with a Pherastar FS (BMG) multimode reader using the alphascreen module.
In general terms: Alpha assays give light when donor and acceptor beads are brought close together.

For test [2], the system named is Amyloid-β peptide release (Aβ42), HEK cells overexpressing APP (HEK-APP). Briefly: Amyloid-β peptide release (Aβ42) assay, AlphaLISA on supernatant of HEK-APP cells. In kind it is cell-based. The following applies: Homo sapiens, HEK293, 24 h incubation with compound, read-out: Ab42 IC50 Ranges. On the procedure: as §1, §2

Regarding `Cc1ncc2oc(-c3ccc(NC(=O)C4(c5ccc(Cl)cc5)CCC4)cn3)nn12` [Example 84, 1-(4-Chloro-phenyl)-cyclobutanecarboxylic acid [6-(5-methyl-imidazo[5,1-b][1,2,4]oxadiazol-2-yl)-pyridin-3-yl]-amide], in test [1], the Abtot/Ab42 selectivity ranges entry was “c (c: 50 fold > selectivity ≥ 10 fold)”. Further, the half-inhibitory concentration (IC50) (in general, the midpoint of a concentration-inhibition curve) in test [2] was in the range of 500 to 1000 nM.

As to `Cc1ncc2oc(-c3ccc(NC(=O)Cc4ccc(C#N)cc4)cc3)nn12` [Example 49, 2-(4-Cyano-phenyl)-N-[4-(5-methyl-imidazo[5,1-b] [1,2,4]oxadiazol-2-yl)-phenyl]-acetamide], the Abtot/Ab42 selectivity ranges entry in test [1] is “c (c: 50 fold > selectivity ≥ 10 fold)”. Moreover, in test [2], the IC50 was 1000 to 2200 nM.

As to `Cc1ncc2oc(-c3ccc(C(=O)NCc4csc5ccc(Cl)cc45)cc3)nn12` [Example 88, N-((5-chlorobenzo[b]thiophen-3-yl)methyl)-4-(5-methylimidazo[5,1-b][1,3,4]oxadiazol-2-yl)benzamide], the Abtot/Ab42 selectivity ranges result in test [1] is on record as “c (c: 50 fold > selectivity ≥ 10 fold)”. The IC50 in test [2] lay in the range of 1000 to 2200 nM.

Consider `Cc1ncc2oc(-c3ccc(NC(=O)Cc4ccc(Cl)c(C(F)(F)F)c4)cc3)nn12` [Example 4], for which the Abtot/Ab42 selectivity ranges entry in test [1] is recorded as “c (c: 50 fold > selectivity ≥ 10 fold)”. For the same compound, the half-inhibitory concentration (IC50) in test [2] was 1000 to 2200 nM.

Regarding `Cc1ncc2sc(C(=O)NCc3ccc(Oc4ccccc4)cc3)nn12` [Example 107, 5-Methyl-imidazo[5,1-b][1,3,4]thiadiazole-2-carboxylic acid 4-phenoxy-benzylamide], the Abtot/Ab42 selectivity ranges result in test [1] was “c (c: 50 fold > selectivity ≥ 10 fold)”. Moreover, in test [2], the IC50 is 100 to 500 nM.

For the compound `Cc1ncc2oc(-c3ccc(NC(=O)NCc4ccccc4Cl)cc3)nn12` [Example 54, 1-(2-Chloro-benzyl)-3-[4-(5-methyl-imidazo[5,1-b][1,2,4]oxadiazol-2-yl)-phenyl]-urea], the Abtot/Ab42 selectivity ranges entry in test [1] is listed as “c (c: 50 fold > selectivity ≥ 10 fold)”. Further, the IC50 in test [2] was in the range of 1000 to 2200 nM.

On to `Cc1ncc2oc(-c3ccc(NC(=O)Cc4ccc(Cl)cc4Cl)cn3)nn12` [Example 82], for which, in test [1], the Abtot/Ab42 selectivity ranges result is listed as “c (c: 50 fold > selectivity ≥ 10 fold)”. In addition, in test [2], the concentration for half-maximal inhibition (IC50) lay within 1000 to 2200 nM.

In the case of `Cc1ncc2sc(-c3nnc(NCc4ccccc4F)o3)nn12` [Example 104, (2-Fluoro-benzyl)-[5-(5-methyl-imidazo[5,1-b][1,3,4]thiadiazol-2-yl)-[1,3,4]oxadiazol-2-yl]-amine], the Abtot/Ab42 selectivity ranges result in test [1] was “d (d: 10 fold > selectivity)”. The half-maximal inhibitory concentration (IC50) in test [2] lay in the range of 1000 to 2200 nM.

Turning to `Cc1ncc2sc(C(=O)N3CCCC[C@H]3c3ccccc3)nn12` [Example 120, (5-Methyl-imidazo[5,1-b][1,3,4]thiadiazol-2-yl)-((S)-2-phenyl-piperidin-1-yl)-methanone], in test [1], the Abtot/Ab42 selectivity ranges result is reported as “d (d: 10 fold > selectivity)”. Further, the IC50 in test [2] is 500 to 1000 nM.

In the case of `Cc1nc(C)n2nc(-c3ccc(C(=O)NCc4ccccc4C(F)(F)F)cc3)oc12` [Example 23, 4-(5,7-Dimethyl-imidazo[5,1-b][1,2,4]oxadiazol-2-yl)-N-(2-trifluoromethyl-benzyl)-benzamide], the Abtot/Ab42 selectivity ranges entry in test [1] is listed as “c (c: 50 fold > selectivity ≥ 10 fold)”. Further, in test [2], the IC50 fell in the range of 1000 to 2200 nM.

Regarding `Cc1nc(C)n2nc(-c3ccc(C(=O)NCc4cccc5ccccc45)cc3)oc12` [Example 22, 4-(5,7-Dimethyl-imidazo[5,1-b][1,2,4]oxadiazol-2-yl)-N-naphthalen-1-ylmethyl-benzamide], in test [1], the Abtot/Ab42 selectivity ranges entry is recorded as “c (c: 50 fold > selectivity ≥ 10 fold)”. Moreover, the 50% inhibitory concentration (IC50) in test [2] was in the range of 500 to 1000 nM.

For `CCOc1ccccc1C(C)NC(=O)c1nn2c(C)ncc2s1` (stereo not drawn) [Example 90, 5-Methyl-imidazo[5,1-b][1,3,4]thiadiazole-2-carboxylic acid [1-(2-ethoxy-phenyl)-ethyl]-amide], the Abtot/Ab42 selectivity ranges entry in test [1] was “d (d: 10 fold > selectivity)”. Also, the half-inhibitory concentration (IC50) in test [2] is 500 to 1000 nM.

In the case of `Cc1cc(-c2nn3c(C)ncc3o2)ccc1NC(=O)C(C)c1cccc(C(F)(F)F)c1` (stereo not drawn) [Example 46, N-(2-methyl-4-(5-methylimidazo[5,1-b][1,3,4]oxadiazol-2-yl)phenyl)-2-(3-(trifluoromethyl)phenyl)propanamide], the Abtot/Ab42 selectivity ranges entry in test [1] is given as “b (b: 100 fold > selectivity ≥ 50 fold)”. In addition, the IC50 in test [2] was 500 to 1000 nM.

For `Cc1cc(-c2nn3c(C)ncc3o2)ccc1NC(=O)Cc1ccc(C(F)(F)F)cc1` [Example 39, N-(2-methyl-4-(5-methylimidazo[5,1-b][1,3,4]oxadiazol-2-yl)phenyl)-2-(4-(trifluoromethyl)phenyl)acetamide], the Abtot/Ab42 selectivity ranges entry in test [1] was “b (b: 100 fold > selectivity ≥ 50 fold)”. For the same compound, the concentration for half-maximal inhibition (IC50) in test [2] was 500 to 1000 nM.

Take `Cc1ncc2oc(-c3ccc(NC(=O)C(c4ccccc4)c4ccccc4)cn3)nn12` [Example 80, N-[6-(5-Methyl-imidazo[5,1-b][1,2,4]oxadiazol-2-yl)-pyridin-3-yl]-2,2-diphenyl-acetamide]: the Abtot/Ab42 selectivity ranges entry in test [1] is recorded as “c (c: 50 fold > selectivity ≥ 10 fold)”. Further, the IC50 in test [2] lay within 500 to 1000 nM.

With `Cc1ncc2oc(-c3ccc(NC(=O)Cc4cccc(Oc5ccccc5)c4)cn3)nn12` [Example 15, N-[6-(5-Methyl-imidazo[5,1-b][1,2,4]oxadiazol-2-yl)-pyridin-3-yl]-2-(3-phenoxy-phenyl)-acetamide], in test [1], the Abtot/Ab42 selectivity ranges entry was “b (b: 100 fold > selectivity ≥ 50 fold)”. For the same compound, in test [2], the IC50 lay in the range of 500 to 1000 nM.

`CCN(Cc1ccccc1)C(=O)c1nn2c(C)ncc2s1` [Example 99, 5-Methyl-imidazo[5,1-b][1,3,4]thiadiazole-2-carboxylic acid benzyl-ethyl-amide]: the Abtot/Ab42 selectivity ranges result in test [1] is given as “d (d: 10 fold > selectivity)”. Also, the half-maximal inhibitory concentration (IC50) in test [2] was 1000 to 2200 nM.

With `Cc1ncc2oc(-c3ccc(NC(=O)Cc4ccc(C(F)(F)F)cc4Br)cc3)nn12` [Example 5, 2-(2-Bromo-4-trifluoromethyl-phenyl)-N-[4-(5-methyl-imidazo[5,1-b][1,2,4]oxadiazol-2-yl)-phenyl]-acetamide], the Abtot/Ab42 selectivity ranges entry in test [1] is “c (c: 50 fold > selectivity ≥ 10 fold)”. For the same compound, the half-maximal inhibitory concentration (IC50) in test [2] lay in the range of 500 to 1000 nM.

`CCC(C(=O)Nc1ccc(-c2nn3c(C)ncc3o2)nc1)c1ccccc1` (stereo not drawn) [Example 85, N-[6-(5-Methyl-imidazo[5,1-b][1,2,4]oxadiazol-2-yl)-pyridin-3-yl]-2-phenyl-butyramide]: the Abtot/Ab42 selectivity ranges result in test [1] is “c (c: 50 fold > selectivity ≥ 10 fold)”. The IC50 in test [2] is 1000 to 2200 nM.

Turning to `Cc1ncc2oc(-c3ccc(C(=O)NCc4cccc5ccccc45)cc3)nn12` [Example 86, 4-(5-methylimidazo[5,1-b][1,3,4]oxadiazol-2-yl)-N-(naphthalen-1-ylmethyl)benzamide], the Abtot/Ab42 selectivity ranges entry in test [1] is listed as “b (b: 100 fold > selectivity ≥ 50 fold)”. Also, the 50% inhibitory concentration (IC50) in test [2] was 500 to 1000 nM.

For `COc1c(F)ccc(CC(=O)Nc2ccc(-c3nn4c(C)ncc4o3)cc2)c1F` [Example 68, 2-(2,4-difluoro-3-methoxyphenyl)-N-(4-(5-methylimidazo[5,1-b][1,3,4]oxadiazol-2-yl)phenyl)acetamide], in test [1], the Abtot/Ab42 selectivity ranges entry is on record as “b (b: 100 fold > selectivity ≥ 50 fold)”. For the same compound, the concentration for half-maximal inhibition (IC50) in test [2] fell in the range of 500 to 1000 nM.

Turning to `Cc1ncc2oc(-c3ccc(NC(=O)Cc4cccc(C(F)(F)F)c4)cc3)nn12` [Example 3, N-[4-(5-Methyl-imidazo[5,1-b][1,2,4]oxadiazol-2-yl)-phenyl]-2-(3-trifluoromethyl-phenyl)-acetamide], the Abtot/Ab42 selectivity ranges result in test [1] is “c (c: 50 fold > selectivity ≥ 10 fold)”. The concentration for half-maximal inhibition (IC50) in test [2] was in the range of 1000 to 2200 nM.

As to `Cc1ncc2sc(C(=O)N3CCC[C@@H]3c3ccc(Br)cc3)nn12` [Example 113, (R)-(2-(4-bromophenyl)pyrrolidin-1-yl)(5-methylimidazo[5,1-b][1,3,4]thiadiazol-2-yl)methanone], the Abtot/Ab42 selectivity ranges entry in test [1] was “d (d: 10 fold > selectivity)”. Besides, the IC50 in test [2] is less than 100 nM.

On to `Cc1cccc(CC(=O)Nc2ccc(-c3nn4c(C)ncc4o3)cc2)c1` [Example 2, N-[4-(5-Methyl-imidazo[5,1-b][1,2,4]oxadiazol-2-yl)-phenyl]-2-m-tolyl-acetamide], for which the Abtot/Ab42 selectivity ranges result in test [1] was “c (c: 50 fold > selectivity ≥ 10 fold)”. Besides, in test [2], the IC50 is 1000 to 2200 nM.

As to `Cc1ncc2oc(-c3ccc(Nc4nccc(NCc5ccccc5C(F)(F)F)n4)cc3)nn12` [Example 74, N2-(4-(5-methylimidazo[5,1-b][1,3,4]oxadiazol-2-yl)phenyl)-N4-(2-(trifluoromethyl)benzyl)pyrimidine-2,4-diamine], the Abtot/Ab42 selectivity ranges entry in test [1] was “d (d: 10 fold > selectivity)”. Further, the IC50 in test [2] was 1000 to 2200 nM.

Take `Cc1ncc2oc(-c3ccc(NC(=O)Cc4ccc(Cl)cc4)cc3)nn12` [Example 47, 2-(4-Chloro-phenyl)-N-[4-(5-methyl-imidazo[5,1-b] [1,2,4]oxadiazol-2-yl)-phenyl]-acetamide]: in test [1], the Abtot/Ab42 selectivity ranges entry is on record as “c (c: 50 fold > selectivity ≥ 10 fold)”. The IC50 in test [2] was 500 to 1000 nM.

For `Cc1ncc2oc(-c3ccc(NC(=O)C(C)c4cccc(C(F)(F)F)c4)cc3)nn12` (stereo not drawn) [Example 55, N-(4-(5-methylimidazo[5,1-b][1,3,4]oxadiazol-2-yl)phenyl)-2-(3-(trifluoromethyl)phenyl)propanamide], the Abtot/Ab42 selectivity ranges entry in test [1] was “c (c: 50 fold > selectivity ≥ 10 fold)”. Further, the concentration for half-maximal inhibition (IC50) in test [2] was 1000 to 2200 nM.
